Measured values published in PubChem BioAssay (NCI).
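Five concentrations, 48 hours, 96-well plates. GI50 marks 50% less growth. The concentration for full growth arrest is given as TGI.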 Where a SMILES comes first, the peptide text is derived from it.

Experiments:
Experiment in all cases: NCI anticancer screen, dose series, 48 h
T-47D breast = system: T-47D breast
DLD-1 colon = system: DLD-1 colon
DMS 114 small cell lung = system: DMS 114 small cell lung
RXF-631 renal = system: RXF-631 renal
M19-MEL melanoma = system: M19-MEL melanoma
DMS 273 small cell lung = system: DMS 273 small cell lung
HOP-18 NSCLC = system: HOP-18 NSCLC
MDA-N = system: MDA-N
XF 498 CNS = system: XF 498 CNS

Row | Structure (SMILES) | GI50 (T-47D breast) [µM] | TGI (T-47D breast) [µM] | TGI (DLD-1 colon) [µM] | TGI (DMS 114 small cell lung) [µM] | TGI (RXF-631 renal) [µM] | TGI (M19-MEL melanoma) [µM] | TGI (DMS 273 small cell lung) [µM] | TGI (HOP-18 NSCLC) [µM] | further results
1 | COC(=O)C(C)NP(=O)(OCc1ccc(Cn2cnc3c(=O)[nH]c(N)nc32)cc1)Oc1ccccc1 (stereo not given) | 34.6 | > 100 |  |  |  |  |  |  | 
2 | O=C(O)c1ccc(O)c(N=Nc2cc(S(=O)(=O)O)c3ccccc3c2O)c1 |  |  | > 100 | > 100 | > 100 | > 100 | > 100 |  | 
3 | Cc1c(C(=O)CC(=O)C(=O)Nc2ccc(Cl)c(Cl)c2)[n+](=O)c2ccccc2n1[O-] |  |  |  | 34.3 | 60.3 | 33.3 | 49.9 |  | 
4 | NC1=C(Cl)C(=O)c2ccc(S(N)(=O)=O)cc2C1=O | 0.318 | 1.2 |  |  |  |  |  |  | 
5 | Nc1ncnc(NC2C=C(CO)C(O)C2O)c1[N+](=O)[O-] (stereo not given) |  |  | > 100 | > 100 | > 100 | > 100 | > 100 | > 100 | 
6 | O=[N+]([O-])c1cc(CCl)ccc1CCl |  | 1.03 |  |  |  |  |  |  | TGI (MDA-N): 4.23 µM
7 | COc1ccc(-c2cnc3ccnn3c2-c2cc(OC)c(OC)c(OC)c2)cc1 | > 100 | > 100 |  |  |  |  |  |  | 
8 | CC(C)NCC(O)COC(=O)c1cccs1 (stereo not given) |  |  | > 100 |  | > 100 | > 100 | > 100 |  | TGI (XF 498 CNS): > 100 µM
9 | ClC1CCC2OOC1O2 (stereo not given) |  |  |  | > 100 |  | > 100 | > 100 |  | 
10 | C=C1C(=O)O[C@H]2[C@H]1CC/C(COC(=O)CCCCCCCCC(=O)OC/C1=C/CC[C@@]3(C)O[C@H]3[C@H]3OC(=O)C(=C)[C@@H]3CC1)=C\CC[C@@]1(C)O[C@@H]21 | 2.16 | 6.2 |  |  |  |  |  |  | 
11 | N/C(=N\N=C\c1cccs1)NO |  |  | > 100 | > 100 | > 100 | > 100 | > 100 | > 100 | TGI (XF 498 CNS): > 100 µM
12 | NC(CNO)C(=O)O (stereo not given) |  | > 100 |  |  |  |  |  |  | TGI (MDA-N): > 100 µM
13 | CCc1ccccc1NC(=O)CCc1n[nH]c(=S)o1 |  |  | > 100 | > 100 |  | > 100 | > 100 | > 100 | 
14 | COC(=O)C(C(=O)C(=O)Nc1ccccc1C(C)=O)c1nc2ccc(Cl)cc2[nH]c1=O (stereo not given) |  |  | > 100 | > 100 | > 100 | > 100 |  | > 100 | 
15 | CN(C)C(=O)/N=c1\ss/c(=N\C(=S)N(C)C)n1-c1ccccc1 |  |  | > 100 |  | > 100 | > 100 | > 100 | > 100 | TGI (XF 498 CNS): > 85.4 µM; GI50 (DMS 114 small cell lung): 33.4 nM; GI50 (HOP-18 NSCLC): > 100 µM; GI50 (DMS 273 small cell lung): 30 µM
16 | O=C(Nc1ccccc1)Nc1cccc(-n2cc(-c3ccncc3)c(-c3ccc(O)c(Cl)c3)n2)c1 | 4.34 | 25.8 |  |  |  |  |  |  | 
17 | c1cc(OCCN2CCCCCC2)ccc1CNc1ccc2nc(CCC3CCCCC3)[nH]c2c1 | 1.72 | 4.79 |  |  |  |  |  |  | 

Row | Structure (SMILES) | GI50 (T-47D breast) [µM] | TGI (T-47D breast) [µM] | TGI (DLD-1 colon) [µM] | TGI (DMS 114 small cell lung) [µM] | TGI (RXF-631 renal) [µM] | TGI (M19-MEL melanoma) [µM] | TGI (DMS 273 small cell lung) [µM] | TGI (HOP-18 NSCLC) [µM] | further results
18 | CC1(C)OC(C(N)=O)=C(C(N)=O)O1 |  |  | > 100 | > 100 |  | > 100 | > 100 | > 100 | TGI (XF 498 CNS): > 100 µM
19 | Cn1ncc2c(/N=C/c3cccs3)[nH]c(=S)nc21 | 35.9 | > 100 |  |  |  |  |  |  | 
20 | Cn1cccc1-c1cc(-c2cccs2)[nH]c(=O)c1C#N | > 100 | > 100 |  |  |  |  |  |  | 
21 | COc1ccc(/C=C2\CN(Cc3cn(CCCNc4ccnc5cc(Cl)ccc45)nn3)C/C(=C\c3ccc(OC)c(OC)c3)C2=O)cc1OC | 2.42 | 9.42 |  |  |  |  |  |  | 
22 | CN[C@]12CC3(C=CC(=O)C=C3)O[C@@]1(Cc1ccc(OC)cc1)N(C)C(=O)N2 | 2.12 | 7.23 |  |  |  |  |  |  | 
23 | COc1cc(-c2cc(=O)c3ccccc3o2)ccc1N |  |  |  | > 100 |  | > 100 | > 100 | > 100 | TGI (XF 498 CNS): > 100 µM
24 | CCC(C)OC(=O)C1C2CCC(O2)C1C(=O)O (stereo not given) |  |  | > 77.7 | > 56.4 |  | > 100 | > 60.1 | > 100 | 
25 | O=C(/C=C\c1cccc2ccccc12)c1cccs1 |  |  | 16.9 | 14 |  | 22.4 | 17.9 | 21.8 | 
26 | CCN(CC)CCOc1ccc(/C(=C(\C)Cc2ccc(OC)cc2)c2ccc(OC(=O)NCc3ccccc3)cc2)cc1 | 1.2 | 4.11 |  |  |  |  |  |  | 
27 | COC(=O)C(C(=O)C(=O)NC1=C(Cl)C(=O)c2ccccc2C1=O)c1csc(-n2nc(-c3ccccc3)cc2-c2ccccc2)n1 (stereo not given) |  |  | > 100 | > 100 | > 100 | > 100 | > 100 | > 100 | TGI (XF 498 CNS): > 100 µM
28 | CC(C)CC(NC(=O)C(CC(C)C)NC(=O)C(Cc1cnc[nH]1)NC(=O)C(C)NC(=O)C(NC(=O)C(C)NC(=O)C(Cc1c[nH]c2ccccc12)NC(=O)C(CCC(=O)O)NC(=O)C(N)Cc1ccccc1)C(C)C)C(N)=O (stereo not given) (H-FEWAVAHLL-NH2; configuration not given here) |  | > 12.5 | > 100 | > 100 | > 100 | > 100 | > 100 | > 100 | TGI (XF 498 CNS): > 100 µM; TGI (MDA-N): > 12.5 µM
29 | Cc1ccccc1NC(=O)C(=O)C(c1cnc2ccc([N+](=O)[O-])cc2n1)[N+](=O)[O-] (stereo not given) |  |  | > 100 | > 100 | > 100 | > 100 | > 100 | > 100 | 
30 | COc1ccc(/C(C)=C(\c2ccc(Cl)cc2)c2ccc(OCCN3CCCC3)cc2)cc1F | 3.3 | 7.87 |  |  |  |  |  |  | 
31 | CN1CCC[C@@H]1CCO[C@](C)(c1ccccc1)c1ccc(Cl)cc1 | 3.29 | 16.4 |  |  |  |  |  |  | 
32 | C#CCOCn1cnc2c(=S)nc[nH]c21 |  |  | > 100 | > 100 | > 100 | > 100 | > 100 |  | TGI (XF 498 CNS): > 100 µM
33 | C/C(CC(=O)NNc1ccc([N+](=O)[O-])cc1)=N\Nc1ccc([N+](=O)[O-])cc1 | 3.71 | > 100 |  |  |  |  |  |  | 
